{
  "source": "patent US10285984B2",
  "about": "“Methods and compositions for improving gut microbiota population” (SHANGHAI JIAO TONG UNIVERSITY, priority 2012, dated 2019)",
  "assay_type_in_all_cases": "in vivo, Wistar rats",
  "key": {"[1]": {"system": "gut microbiota", "assay": "Gut microbiota structure in rat feces by 454 pyrosequencing and multivariate statistics (PCoA, MANOVA, RDA, Shannon-Wiener index)", "description": "(§1) These examples use Wistar rats (8 weeks old, male) as testing subjects and berberine as a representative compound. 40 Wistar rats were acclimatized for two weeks and were subsequently randomly divided into four groups: normal diet group (NCD), normal diet plus berberine treatment (NCD+BBR), high fat diet (HFD), and high fat diet plus berberine treatment (HFD+BBR). Each group continued for another 18 weeks. During these 18 weeks, the NCD+BBR group received intragastric administration of berberine at stated levels. Feces samples from each animal were collected at various time points. 454 pyrosequencing was performed to analyze gut microbiota structure. Gas chromatography was used to assay the short-chain fatty acid level of the feces. In addition, weight, food intake, insulin sensitivity, systemic inflammation levels were monitored and measured during the 18-week period.\nThe gut microbiota populations in rats from all four experimental groups were analyzed by 454 pyrosequencing and multivariate statistical analyses. […] Diet also exerted statistically significant influence on gut microbiota population.\n268 berberine-related OTU were identified by redundancy analysis (RDA) and the detailed results are shown in FIG. 2, TABLE 1, and TABLE 2. 93 OTU (SEQ_ID_NO 1-93) (TABLE 1) are enriched by berberine, while 175 OTU (SEQ_ID_NO 94-268) (TABLE 2) were suppressed or eliminated.\nThe taxonomy of these 268 OTU was analyzed using RDP classifier with representative sequence of the OTU. […] Among them, Blautia, Allobaculum, Prevotella, Bacteroides, and Butyricimonas are relatively abundant and are capable of producing short-chain fatty acid."}, "[2]": {"assay": "Insulin sensitivity in rats: FBG, FINS, HOMA-IR, oral glucose tolerance test, intraperitoneal insulin tolerance test", "description": "as §1, with “period. The fasting blood glucose (FBG) and fasting insulin in serum (FINS) were measured for all four experimental groups of rats. […] In order to further examine insulin sensitivity, oral glucose tolerance test and intraperitoneal injection of insulin tolerance test were conducted, and the results are shown in FIG. 5D, and 5E, respectively.” for “period.”"}, "[3]": {"system": "gut short-chain fatty acid", "assay": "Short-chain fatty acid level in rat feces by gas chromatography", "details": "oral 100 mg/kg body weight, FIG. 3", "description": "as §1, with “period. The levels of short-chain fatty acid (including acetic acid, propionic acid, butyric acid, valeric acid, isobutyric acid, isovaleric acid, etc.) in rat feces were assayed by gas chromatography. […] Therefore, berberine is capable of increasing gut short-chain fatty acid level in rats fed normal diet or high fat diet.” for “period.”"}, "[4]": {"assay": "Obesity phenotype of rats fed normal or high fat diet: body weight, adiposity index, food intake, liver and pancreas", "description": "as §1, with “period. The body weight of all four groups of rats were monitored during the duration of the experiments and analyzed. […] At the end of experiment, animals were euthanized. Fasting body weight, epididymal fat weight, and perirenal fat weight were measured.” for “period.”"}, "[5]": {"assay": "Systemic inflammation level in rats: serum LBP, MCP-1, leptin, adiponectin", "description": "as §1\nIn order to evaluate the systemic inflammation levels of all four experimental groups of rats, the serum levels of lipopolysaccharide (LPS)-binding protein (LBP), monocyte chemoattractant protein-1 (MCP-1), leptin, and adiponectin were measured, and results are shown in FIG. 6.\nMCP-1 is a pro-inflammatory cytokine that functions in chemotaxis and activation of monocytes/macrophages. Occurrence and development of many inflammation-related diseases are closely related to MCP-1, including atherosclerosis, obesity, type 2 diabetes, arthritis, sepsis, and chronic bacterial infection.\nLeptin is a hormone secreted by adipose tissue, and broadly participates in lipid, glucose, and energy metabolism.\nThe adiponectin levels in all four groups were analyzed. […] Therefore, berberine improves gut microbiota population, reduces LPB, MCP-1, and lpetin level, and increases adiponectin secretion. TABLE 1 16S rRNA gene V3 region sequence of those bacteria enriched by berberine."}},
  "data": [
    {"compound": "COc1ccc2cc3[n+](cc2c1OC)CCc1cc2c(cc1-3)OCO2", "note": "[berberine]", "values": [
      {"measurement": "number of berberine-related OTU identified (RDA)", "setting": "[1]; FIG. 2", "value": 268, "unit": "OTU"},
      {"measurement": "share of overall changes in the gut microbiota population accounted for (PCoA, unweighted Unifrac distance)", "setting": "[1]; NCD and HFD rats, FIG. 1A", "value": 12.6, "unit": "%"},
      {"measurement": "diversity of gut microbiota population (Shannon-Wiener index)", "setting": "[1]; P<0.05, FIG. 1C", "value": "reduces diversity of gut microbiota population at a statistically significant level"},
      {"measurement": "number of OTU enriched (RDA)", "setting": "[1]; SEQ_ID_NO 1-93, TABLE 1", "value": 93, "unit": "OTU"},
      {"measurement": "number of OTU suppressed or eliminated (RDA)", "setting": "[1]; SEQ_ID_NO 94-268, TABLE 2", "value": 175, "unit": "OTU"},
      {"measurement": "effect on gut microbiota structure (PCoA)", "setting": "[1]; normal diet group and high fat diet group", "value": "altered gut microbiota structure in both the normal diet group and high fat diet group at a statistically significant level"},
      {"measurement": "oral glucose tolerance test", "setting": "[2]; 100 mg/kg body weight, 18 weeks HFD, FIG. 5D", "value": "significantly prevented the loss of glucose tolerance"},
      {"measurement": "intraperitoneal injection of insulin tolerance test", "setting": "[2]; 100 mg/kg body weight, 18 weeks HFD, FIG. 5E", "value": "significantly prevented the loss of glucose tolerance and insulin tolerance"},
      {"measurement": "fasting insulin in serum (FINS)", "setting": "[2]; 100 mg/kg body weight, HFD+BBR, FIG. 5B", "value": "significantly reduced"},
      {"measurement": "HOMA insulin resistance index", "setting": "[2]; 100 mg/kg body weight, HFD, P<0.05, FIG. 5C", "value": "prevented the formation of insulin resistance"},
      {"measurement": "fasting blood glucose (FBG) reduction", "setting": "[2]; HFD rats, P<0.05, FIG. 5A", "value": "significant"},
      {"measurement": "fasting blood glucose (FBG)", "setting": "[2]; NCD and HFD rats, FIG. 5A", "value": "effectively reduced FBG"},
      {"measurement": "effect on levels of acetic acid and propionic acid in feces", "setting": "[3]", "value": "especially pronounced"},
      {"measurement": "level of gut short-chain fatty acid in feces", "setting": "[3]; rats fed normal diet or high fat diet", "value": "may increase the level of gut short-chain fatty acid"},
      {"measurement": "body weight of HFD+BBR group versus normal diet group", "setting": "[4]; 100 mg/kg, entire experiment, P>0.05", "value": "no statistically significant difference"},
      {"measurement": "effect on liver and pancreas / side effect of long term use", "setting": "[4]; 18 weeks", "value": "no obvious side effect"},
      {"measurement": "adiposity index ([epididymal fat weight+perirenal fat]/fasting weight×100)", "setting": "[4]; 18 weeks, HFD, FIG. 4B", "value": "significantly reduces adiposity index"},
      {"measurement": "body weight of rats fed a normal diet", "setting": "[4]; NCD+BBR, FIG. 4", "value": "influences, to a certain degree"},
      {"measurement": "body weight growth", "setting": "[4]; intragastric 100 mg/kg, 18 weeks, especially rats fed high fat diet, FIG. 4A", "value": "effectively limits rat body weight growth"},
      {"measurement": "food intake (calorie intake)", "setting": "[4]; oral 100 mg/kg body weight, especially rats fed a high fat diet, FIG. 4C", "value": "significant inhibitory effect on rat food intake"},
      {"measurement": "serum lipopolysaccharide (LPS)-binding protein (LBP)", "setting": "[5]; 100 mg/kg, HFD, P<0.05, FIG. 6A", "value": "significantly abrogated the increase of serum LBP"},
      {"measurement": "serum MCP-1 level", "setting": "[5]; HFD rats, FIG. 6B", "value": "significantly reduced"},
      {"measurement": "serum MCP-1 level versus NCD group", "setting": "[5]; HFD+BBR versus NCD", "value": "even lower than that of NCD group"},
      {"measurement": "serum leptin level", "setting": "[5]; especially rats fed a HFD, P<0.05, FIG. 6C", "value": "significantly reduced the serum leptin level"},
      {"measurement": "adiponectin level normalized against body fat weight", "setting": "[5]; rats fed a HFD, P<0.01, FIG. 6D", "value": "significantly increased adiponectin level"}
    ]}
  ]
}
